Broadly, the MIC is the lowest concentration that inhibits growth of the organism.

Where a name gives a salt, the structure may show the parent alone.

Consider four molecules from patent publication US9982019B2, “Glycopeptide compound or pharmaceutical salt thereof and method for preparing same, and pharmaceutical compositions and applications thereof” (priority 2012, dated 2018).

Assay [1] relates to Streptococcus pneumoniae (PISP: ATCC 49619). The assay is described as follows: In vitro antibacterial activity, agar two times dilution method, MIC. The conditions noted are these: for MIC Values of Compounds, Streptococcus pneumoniae: agar dilution, PISP ATCC 49619. In kind it is cell-based. From the text: (§1) Testing results of in vitro antibacterial activity of some target compounds of the present invention are as follows:
(§2) Drugs: firstly being dissolved in DMSO, and then being diluted to an appropriate concentration with sterile water, and afterwards successively being diluted for twice.
(§3) Determination: referencing the standard of CSSI 2008 version, using a agar two times dilution method, determine the minimum inhibitory concentration (MIC values).
(§4) Feces enterococci (VSE clinical isolates: MEFA 0039); Streptococcus pneumoniae (PISP: ATCC 49619).
(§5) 3. Positive Control Drug is Vancomycin Hydrochloride.
For orientation: Agar dilution tests growth on a series of plates holding different concentrations.

Assay [2] deals with Feces enterococci (VSE clinical isolates: MEFA 0039). The assay is described as above. To be noted: for MIC Values of Compounds, Enterococci: agar dilution, VSE clinical isolate MEFA 0039. In kind it is cell-based.
Excerpt: as §1, §2, §3, §4, §5

Regarding `CCN(CC)Cc1c(O)cc2c(c1O)-c1cc(ccc1O)C1NC(=O)C3NC(=O)C(CC(N)=O)NC(=O)C(N4CN(C)C(CC(C)C)C4=O)C(O)c4ccc(c(Cl)c4)Oc4cc3cc(c4OC3OC(CO)C(O)C(O)C3OC3CC(C)(NCc4ccc(Br)cc4)C(O)C(C)O3)Oc3ccc(cc3Cl)C(OC3CC(C)(N)C(O)C(C)O3)C(NC1=O)C(=O)NC2C(=O)O` (centres unmarked) [II7], in assay [1], the “MIC Values of Compounds, Streptococcus pneumoniae” value came out at 0.25 µg/mL. Besides, in assay [2], the “MIC Values of Compounds, Enterococci” value came to 1 µg/mL.

Consider `CCN(CC)Cc1c(O)cc2c(c1O)-c1cc(ccc1O)C1NC(=O)C3NC(=O)C(CC(N)=O)NC(=O)C(N4CN(C)C(CC(C)C)C4=O)C(O)c4ccc(c(Cl)c4)Oc4cc3cc(c4OC3OC(CO)C(O)C(O)C3OC3CC(C)(NCc4ccc(OC)cc4)C(O)C(C)O3)Oc3ccc(cc3Cl)C(OC3CC(C)(N)C(O)C(C)O3)C(NC1=O)C(=O)NC2C(=O)O` (centres unmarked) [II8], for which, in assay [1], the “MIC Values of Compounds, Streptococcus pneumoniae” value was 0.25 µg/mL. Further, the “MIC Values of Compounds, Enterococci” value in assay [2] came to 1 µg/mL.

With `CC(C)CC1C(=O)N(C2C(=O)NC(CC(N)=O)C(=O)NC3C(=O)NC4C(=O)NC(C(=O)NC(C(=O)O)c5cc(O)c(CN6CCOCC6)c(O)c5-c5cc4ccc5O)C(OC4CC(C)(N)C(O)C(C)O4)c4ccc(c(Cl)c4)Oc4cc3cc(c4OC3OC(CO)C(O)C(O)C3OC3CC(C)(NCc4ccc(C(C)C)cc4)C(O)C(C)O3)Oc3ccc(cc3Cl)C2O)CN1C` (centres unmarked) [II9], the “MIC Values of Compounds, Streptococcus pneumoniae” value in assay [1] amounted to 0.25 µg/mL. Moreover, the “MIC Values of Compounds, Enterococci” value in assay [2] was 1 µg/mL.

Regarding `CN[C@H](CC(C)C)C(=O)N[C@H]1C(=O)N[C@@H](CC(N)=O)C(=O)N[C@H]2C(=O)N[C@H]3C(=O)N[C@H](C(=O)N[C@H](C(=O)O)c4cc(O)cc(O)c4-c4cc3ccc4O)[C@H](O)c3ccc(c(Cl)c3)Oc3cc2cc(c3O[C@@H]2O[C@H](CO)[C@@H](O)[C@H](O)[C@H]2O[C@H]2C[C@](C)(N)[C@H](O)[C@H](C)O2)Oc2ccc(cc2Cl)[C@H]1O` [vancomycin hydrochloride, reference compound], the MIC in assay [1] (Streptococcus pneumoniae, ATCC49619, read-out: MIC Values of Compounds, Streptococcus pneumoniae) is 0.125 µg/mL; in assay [2] (read-out: MIC Values of Compounds, Enterococci) it was 0.25 µg/mL.
